What is called Kd is a measure of binding affinity in units of concentration. Read a low Kd as tighter binding.

Each structure is given as a SMILES string.

The record followed here is publication PMC8002512, “IRE1α Is a Therapeutic Target for Cystic Fibrosis Airway Inflammation” (International Journal of Molecular Sciences, 2021).

The experiment has as its target T1, IRE1α (Homo sapiens, UniProt O75460).
T1 construct: gene ERN1; cytoplasmic portion, kinase and RNase domains, residues 547-977 of NP_001424, N-terminal His-tagged (Sf9)
In words: TR-FRET (LanthaScreen) displacement of tracer […] from purified His-tagged IRE1α. In kind it is binding. (TR-FRET usually uses a lanthanide donor and a delayed reading to cut background.)

T1 sequence (O75460 547-977): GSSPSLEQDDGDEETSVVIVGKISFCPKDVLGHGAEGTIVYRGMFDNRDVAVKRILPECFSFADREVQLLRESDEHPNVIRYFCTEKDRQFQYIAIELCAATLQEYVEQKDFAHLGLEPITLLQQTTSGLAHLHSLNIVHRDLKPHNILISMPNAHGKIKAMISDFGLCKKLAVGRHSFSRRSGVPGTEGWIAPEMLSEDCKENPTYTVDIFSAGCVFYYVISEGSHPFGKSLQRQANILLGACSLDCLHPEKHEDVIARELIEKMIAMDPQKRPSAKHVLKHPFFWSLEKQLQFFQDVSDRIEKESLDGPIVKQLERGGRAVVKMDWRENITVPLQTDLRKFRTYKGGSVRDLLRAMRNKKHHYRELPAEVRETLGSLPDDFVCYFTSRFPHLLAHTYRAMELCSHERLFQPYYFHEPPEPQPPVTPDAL

Compound `CC(C)(C)c1nc(-c2ccc(NC(=O)Nc3cccc(C(F)(F)F)c3)c3ccccc23)c2c(N)nccn12` [KIRA6] yielded a Kd of 280 nM.
